The text below walks through data of ChEMBL document CHEMBL6103639, “Structure-Based Development of 3,4-Fused Tricyclic Benzofuran Derivatives as Polyketide Synthase 13 Inhibitors with Negligible hERG Inhibition” (J Med Chem, 2025).

Common to all, as to assay type: functional
For test [1], the system named is Mycobacterium tuberculosis. Put plainly: Antitubercular activity against Mycobacterium tuberculosis N1640S mutant assessed as reduction in microbial growth by microplate alamar blue assay. (In general: The colour change of resazurin is a common sign of viable cells or microbes.)
The test system of test [2] is Mycobacterium tuberculosis. Put plainly: Antitubercular activity against Mycobacterium tuberculosis N1640K mutant assessed as reduction in microbial growth by microplate alamar blue assay.
Test [3] has as its system Mycobacterium tuberculosis. Put plainly: Antitubercular activity against Mycobacterium tuberculosis D1644G mutant assessed as reduction in microbial growth by microplate alamar blue assay.
For test [4], the system named is Mycobacterium tuberculosis. Put plainly: Antitubercular activity against Mycobacterium tuberculosis A1667V mutant assessed as reduction in microbial growth by microplate alamar blue assay.

`CN1CN(C2CCCC2)Cc2c(O)ccc3oc(-c4ccc(O)cc4)c(c23)C1=O`: the minimum inhibitory concentration (MIC) in test [1] was greater than 64 µg/mL; in test [2] it was greater than 64 µg/mL; in test [3] it was greater than 64 µg/mL; in test [4], 32 µg/mL.

For `CN1CN(CC2CC2)Cc2c(O)ccc3oc(-c4ccc(O)cc4)c(c23)C1=O`, the MIC in test [1], in test [2], in test [3] and in test [4] was greater than 64 µg/mL throughout.

In the case of `CN1CN(CC2CCC2)Cc2c(O)ccc3oc(-c4ccc(O)cc4)c(c23)C1=O`, the minimal inhibitory concentration (MIC) was greater than 64 µg/mL in test [1], greater than 64 µg/mL in test [2], greater than 64 µg/mL in test [3] and 8 µg/mL in test [4].

The MIC is the lowest concentration that inhibits growth of the organism.
